Data from patent publication EP4722205A1, “HETEROCYCLIC COMPOUND AND NOXIOUS ARTHROPOD-CONTROLLING COMPOSITION CONTAINING SAME” (Sumitomo Chemical Company, Limited, priority 2023, dated 2024).

What was measured:
Type in all cases: in vivo
[1] = tested on: cotton worm (Spodoptera litura); experiment: Test Method 3: sprayed cabbage leaves fed to second instar cotton worm; details: 120 h, second instar larvae, after 5 days, 25°C, read-out: mortality of insects
Method: (§1) The following tests in the test examples below were conducted at 25°C.
(§2) Cabbage (Brassicae oleracea) seedling (on the developmental stage of the second to third true leaf) is planted in a cup, and the diluted solutions are sprayed into the seedling at a ratio of 20 mL/seedling. Thereafter, the stem and leaf thereof are cut out and then is installed into a cup that is covered with filter paper on the bed of the cup. Five (5) cotton worm (Spodoptera litura) at the second instar larval stage are released into the cup. After 5 days, the number of the surviving insects is counted, and the mortality of insects is calculated by the following equation. [formula]

[2] = tested on: diamondback moth (Plutella xylostella); experiment: Test Method 4: sprayed cabbage leaves fed to second instar diamondback moth; details: 120 h, second instar larvae, after 5 days, 25°C, read-out: mortality of insects
Method: (§3) Next, an efficacy of the present compound on controlling harmful arthropods is shown by Test examples. The following tests in the test examples below were conducted at 25°C.
Test compounds are made to a formulation according to a similar method to that described in the Formulation example 1, and thereto is added water containing 0.03 v/v% of Shindain (registered trademark) to prepare a diluted solution containing a prescribed concentration of the test compound.
as §2, with “diamondback moth (Plutella xylostella)” for “cotton worm (Spodoptera litura)”

[3] = tested on: diamondback moth (Plutella xylostella); experiment: Test Method 10: sprayed cabbage seedling, third instar diamondback moth (Formulation example 5); details: 144 h, third instar larvae, after 6 days, 25°C, read-out: controlling value
Method: as §1
(§4) Cabbage (Brassicae oleracea) seedling (on the developmental stage of the third to fourth true leaf) is planted in a cup, and the diluted solutions are sprayed into the seedling at a ratio of 20 mL/seedling. Thereafter, ten (10) diamondback moth (Plutella xylostella) at the third instar larval stage are released onto the seedling. After 6 days, the number of the surviving insects is counted, and the mortality of insects is calculated by the following equation. [formula]

[4] = tested on: cotton aphids (Aphis gossypii); experiment: Test Method 11: foliar spray on cucumber seedling infested with cotton aphids (Formulation example 5); details: 120 h, spray 10 mL/seedling, examined after 5 days, 25°C, read-out: controlling value
[5] = tested on: common house mosquitos (Culex pipiens pallens); experiment: Test Method 12: mosquito larvae released into diluted solution; details: 24 h, last instar larvae, after 1 day, 25°C, read-out: controlling value
Method: as §1
Into the diluted solution, 30 common house mosquitos (Culex pipiens pallens) at the last instar larval stage are released, and after 1 day, the state of the house mosquito larvae is examined, and the mortality of insects is calculated by the following equation. [formula]

[6] = tested on: housefly (Musca domestica); experiment: Test Method 8: coated container contact test, housefly; details: 24 h, 40 mg/m^2, female adults, after one (1) day, 25°C, read-out: mortality of insects
Method: as §3
Acetone solution in which test compounds are adjusted to 800 ppm are prepared, and the solution is poured into a container having an internal volume of 20 mL, and the solution is coated uniformly on an inner face of the container such that the test compound is made to be 40 mg/m^2, and the container is then dried.
Five (5) housefly (Musca domestica) female adults are placed in the container, and the cup is covered with the lid. After the prescribed timing is passed, the state of the housefly is examined, and the mortality of insects is calculated by the following equation. [formula]

[7] = tested on: cotton worm (Spodoptera litura); experiment: Test Method 9: sprayed cabbage seedling, third instar cotton worm (Formulation example 5); details: 144 h, third instar larvae, after 6 days, 25°C, read-out: controlling value
Method: as §1
as §4, with “cotton worm (Spodoptera litura)” for “diamondback moth (Plutella xylostella)”

[8] = tested on: cotton aphids (Aphis gossypii); experiment: Test Method 1: foliar spray on cucumber seedling infested with cotton aphids (Formulation example 1); details: 120 h, spray 10 mL/seedling, examined after 5 days, 25°C, read-out: controlling value

| SMILES | mortality at 500 ppm [1] [%] | mortality at 500 ppm [2] [%] | mortality at 50 ppm [3] [%] | mortality at 200 ppm [3] [%] | mortality at 50 ppm [4] [%] | mortality at 200 ppm [4] [%] | mortality at 3.5 ppm [5] [%] | mortality at 40 mg/m2 [6] [%] | mortality at 50 ppm [7] [%] | mortality at 200 ppm [7] [%] | mortality at 500 ppm [8] [%] |
| --- | --- | --- | --- | --- | --- | --- | --- | --- | --- | --- | --- |
| CCS(=O)(=O)c1ccc(N(C)C)nc1C(=O)N(C)c1nc2cc(F)c(F)cc2s1 [compound 135] | ≥ 80 | ≥ 80 | ≥ 80 | ≥ 80 | ≥ 90 | ≥ 90 | ≥ 90 | – | – | – | – |
| CCS(=O)(=O)c1c(C(=O)N(C)c2nc3cc(F)c(F)cc3s2)nc2ccc(Br)cn12 [compound 43] | ≥ 80 | ≥ 80 | – | – | – | ≥ 90 | – | ≥ 80 | ≥ 80 | ≥ 80 | – |
| CCS(=O)(=O)c1cc(-c2ncccn2)cnc1C(=O)N(C)c1nc2cc(F)c(F)cc2s1 [compound 111] | ≥ 80 | ≥ 80 | ≥ 80 | ≥ 80 | ≥ 90 | ≥ 90 | ≥ 90 | – | ≥ 80 | ≥ 80 | ≥ 90 |
| CCS(=O)(=O)c1cc(-c2ccccn2)cnc1C(=O)N(C)c1nc2cc(F)c(F)cc2s1 [compound 109] | ≥ 80 | ≥ 80 | ≥ 80 | ≥ 80 | ≥ 90 | ≥ 90 | ≥ 90 | – | ≥ 80 | ≥ 80 | ≥ 90 |
| CCS(=O)(=O)c1cccnc1C(=O)N(C)c1nc2cc(C(F)(F)F)ccc2n1C [compound 56] | – | ≥ 80 | – | – | – | – | ≥ 90 | – | – | – | ≥ 90 |
| CCSc1c(C(=O)N(C)c2nc3cc(F)ccc3n2C)nc2ccc(I)cn12 [compound 70] | – | – | – | – | ≥ 90 | ≥ 90 | ≥ 90 | – | – | – | ≥ 90 |
| CCS(=O)(=O)c1c(C(=O)N(C)c2nc3ccccc3s2)nc2ccc(I)cn12 [compound 31] | ≥ 80 | ≥ 80 | ≥ 80 | ≥ 80 | ≥ 90 | ≥ 90 | ≥ 90 | – | ≥ 80 | ≥ 80 | ≥ 90 |
| CCS(=O)(=O)c1ccc(-c2ncccn2)nc1C(=O)N(C)c1nc2cc(F)c(F)cc2s1 [compound 130] | ≥ 80 | ≥ 80 | ≥ 80 | ≥ 80 | ≥ 90 | ≥ 90 | ≥ 90 | – | ≥ 80 | ≥ 80 | ≥ 90 |
| CCS(=O)(=O)c1c(C(=O)N(C)c2nc3c(F)cc(F)cc3s2)nc2ccc(I)cn12 [compound 35] | ≥ 80 | ≥ 80 | ≥ 80 | ≥ 80 | – | – | ≥ 90 | – | ≥ 80 | ≥ 80 | ≥ 90 |
| CCS(=O)(=O)c1c(C(=O)N(C)c2nc3ccc(F)cc3s2)nc2ccc(I)cn12 [compound 23] | ≥ 80 | ≥ 80 | ≥ 80 | – | ≥ 90 | ≥ 90 | ≥ 90 | – | ≥ 80 | ≥ 80 | ≥ 90 |
| CCS(=O)(=O)c1c(C(=O)N(C)c2nc3cc(F)c(F)cc3s2)nn(C)c1C1CC1 [compound 144] | ≥ 80 | ≥ 80 | ≥ 80 | ≥ 80 | – | ≥ 90 | ≥ 90 | – | – | – | ≥ 90 |
| CCS(=O)(=O)c1c(C(=O)N(C)c2nc3cc(F)c(F)cc3o2)nc2ccc(I)cn12 [compound 42] | ≥ 80 | – | – | – | – | – | ≥ 90 | – | – | – | ≥ 90 |
| CCS(=O)(=O)c1c(C(=O)N(C)c2nc3cc(Cl)ccc3o2)nc2ccc(I)cn12 [compound 41] | – | ≥ 80 | ≥ 80 | ≥ 80 | ≥ 90 | ≥ 90 | ≥ 90 | – | – | – | ≥ 90 |
| CCS(=O)(=O)c1c(C(=O)N(C)c2nc3ncc(F)cc3s2)nc2ccc(I)cn12 [compound 76] | ≥ 80 | ≥ 80 | ≥ 80 | ≥ 80 | – | ≥ 90 | ≥ 90 | – | ≥ 80 | ≥ 80 | ≥ 90 |
| CCS(=O)(=O)c1cc(-c2ccc(F)cn2)cnc1C(=O)N(C)c1nc2cc(F)c(F)cc2s1 [compound 110] | ≥ 80 | ≥ 80 | ≥ 80 | ≥ 80 | – | – | ≥ 90 | – | ≥ 80 | ≥ 80 | – |
| CCOc1cnc(C(=O)N(C)c2nc3cc(F)c(F)cc3s2)c(S(=O)(=O)CC)c1 [compound 125] | ≥ 80 | ≥ 80 | ≥ 80 | ≥ 80 | ≥ 90 | ≥ 90 | ≥ 90 | – | ≥ 80 | ≥ 80 | ≥ 90 |
| CCS(=O)(=O)c1c(C(=O)N(C)c2nc3cc(Cl)ccc3s2)nc2ccc(I)cn12 [compound 29] | ≥ 80 | ≥ 80 | ≥ 80 | ≥ 80 | – | ≥ 90 | ≥ 90 | – | ≥ 80 | ≥ 80 | ≥ 90 |
| CCS(=O)(=O)c1ccc(NC)nc1C(=O)N(C)c1nc2cc(F)c(F)cc2s1 [compound 134] | ≥ 80 | ≥ 80 | ≥ 80 | ≥ 80 | ≥ 90 | ≥ 90 | ≥ 90 | – | ≥ 80 | ≥ 80 | ≥ 90 |
| CCS(=O)(=O)c1c(C(=O)N(C)c2nc3cccc(F)c3s2)nc2ccc(I)cn12 [compound 22] | ≥ 80 | ≥ 80 | ≥ 80 | ≥ 80 | ≥ 90 | ≥ 90 | ≥ 90 | – | – | ≥ 80 | ≥ 90 |
| CCS(=O)(=O)c1cc(C2CC2)cnc1C(=O)N(C)c1nc2cc(F)c(F)cc2s1 [compound 115] | ≥ 80 | ≥ 80 | ≥ 80 | ≥ 80 | ≥ 90 | ≥ 90 | ≥ 90 | – | ≥ 80 | ≥ 80 | ≥ 90 |
| CCS(=O)(=O)c1c(C(=O)N(C)c2nc3ccc(F)cc3o2)nc2ccc(I)cn12 [compound 40] | – | ≥ 80 | – | – | – | ≥ 90 | ≥ 90 | – | – | – | ≥ 90 |
